Literature values as cited in patent US11622994B2, “Therapy for vitiligo” (Clinuvel Pharmaceuticals Limited, priority 2008, dated 2023).

Key:
[1] = test system: cultured human keratinocytes; conditions: versus native alpha-MSH
frog skin = frog skin bioassay; versus native alpha-MSH

In the case of Nle^4-D-Phe^7-alpha-MSH, the melanin synthesis (human volunteers) is given as “can induce melanin synthesis”, the “potency relative to the native hormone at inducing pigmentation” value [1] is given as 10 to 1,000 fold and the “potency relative to the native hormone at inducing pigmentation” value (frog skin) is given as 10 to 1,000 fold.
